Experimental data reported in PubChem BioAssay AID256 (DTP/NCI, 2004).
Where “and” joins values, the source holds several entries; their conditions need not be identical. Identical values can stand only once. Toxic doses and inconclusive results are not listed. The calls were made as follows: active = survival T/C of 150% or more; inactive = T/C below 125% in these data. Non-standard residues stand in square brackets, D forms with d. Residues, ends and D or L forms follow the SMILES beside them. ξ: configuration not given here. *: point of attachment. Hexanoyl = CCCCCC(=O)*; ξP = O=C(O)C1CCCN1; Ava = NCCCCC(=O)O

System: CD2F1 mice, L1210 leukemia ip, survival T/C
Experiment: NCI In Vivo Anticancer Drug Screen. Data for tumor model L1210 Leukemia (intraperitoneal) in CD2F1 (CDF1) mice
Details: higher = longer survival
Summary of the method: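 Activity against a transplanted murine tumor was judged by comparing the compound group with a vehicle group. The outcome in the treated animals was divided by that in the controls.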

[1] = endpoint: mean survival time, dose: 25.0 mg/kg/injection, schedule: Q04DX003 (ip), vehicle: saline with Tween-80
[2] = endpoint: mean survival time, dose: 50.0 mg/kg/injection, schedule: Q04DX003 (ip), vehicle: saline with Tween-80
[3] = endpoint: mean survival time, dose: 100.0 mg/kg/injection, schedule: Q04DX003 (ip), vehicle: saline with Tween-80
[4] = endpoint: mean survival time, dose: 100.0 mg/kg/injection, schedule: Q04DX003 (ip), vehicle: saline
[5] = endpoint: mean survival time, dose: 200.0 mg/kg/injection, schedule: Q04DX003 (ip), vehicle: saline with Tween-80
[6] = endpoint: mean survival time, dose: 400.0 mg/kg/injection, schedule: Q04DX003 (ip), vehicle: saline with Tween-80
[7] = endpoint: mean survival time, dose: 100.0 mg/kg/injection, schedule: Q01DX001 (ip), vehicle: saline
[8] = endpoint: mean survival time, dose: 200.0 mg/kg/injection, schedule: Q01DX001 (ip), vehicle: saline
[9] = endpoint: mean survival time, dose: 100.0 mg/kg/injection, schedule: Q01DX009 (ip), vehicle: saline with Tween-80
[10] = endpoint: mean survival time, dose: 200.0 mg/kg/injection, schedule: Q01DX009 (ip), vehicle: saline with Tween-80
[11] = endpoint: mean survival time, dose: 400.0 mg/kg/injection, schedule: Q01DX009 (ip), vehicle: saline with Tween-80
[12] = endpoint: mean survival time, dose: 50.0 mg/kg/injection, schedule: Q01DX009 (ip), vehicle: saline with Tween-80
[13] = endpoint: mean survival time, dose: 200.0 mg/kg/injection, schedule: Q04DX003 (ip), vehicle: saline

Measured: T/C

NC(C(=O)O)C(O)c1cnc[nH]1 (stereo unspecified)
inactive: endpoint: mean survival time, dose: 12.5 mg/kg/injection, schedule: Q01DX009 (ip), vehicle: water 96 % of control | endpoint: mean survival time, dose: 25.0 mg/kg/injection, schedule: Q01DX009 (ip), vehicle: water 100 % of control | endpoint: mean survival time, dose: 50.0 mg/kg/injection, schedule: Q01DX009 (ip), vehicle: water 100 % of control | endpoint: mean survival time, dose: 100.0 mg/kg/injection, schedule: Q01DX009 (ip), vehicle: water 104 % of control | endpoint: mean survival time, dose: 200.0 mg/kg/injection, schedule: Q01DX009 (ip), vehicle: water 102 % of control

CC(C)N(Cl)S(C)(=O)=O
inactive: [1] 97 % of control | [2] 93 % of control | [3] 95 % of control

COc1ccc2c(c1OC)C1C3CC=CC3C2C2=[N+]1CCc1cc3c(cc12)OCO3 (stereo unspecified)
inactive: endpoint: mean survival time, dose: 12.5 mg/kg/injection, schedule: Q04DX003 (ip), vehicle: saline 97 % of control | endpoint: mean survival time, dose: 25.0 mg/kg/injection, schedule: Q04DX003 (ip), vehicle: saline 104 % of control | [4] 97 % of control

Cc1cc2nc3c(nc2cc1C)-c1ccccc1C3=O
inactive: [3] 94 % of control | [5] 93 % of control | [6] 94 % of control

CCCCCC(/C=N\N=C\c1ccco1)=C\c1ccccc1
inactive: [3] 93 % of control | [5] 93 % of control | [6] 96 % of control

O=C(O)CC(CC(=O)O)C(=O)O.[NH-]C1CCCCC1[NH-].[Pt+2]
inactive: endpoint: median survival time, dose: 3.12 mg/kg/injection, schedule: Q04DX003 (ip), vehicle: Klucel (hydroxypropylcellulose) (HPC) 112 % of control | endpoint: median survival time, dose: 3.12 mg/kg/injection, schedule: Q04DX003 (ip), vehicle: saline 106 % of control | endpoint: median survival time, dose: 6.25 mg/kg/injection, schedule: Q04DX003 (ip), vehicle: Klucel (hydroxypropylcellulose) (HPC) 112 % of control | endpoint: median survival time, dose: 6.25 mg/kg/injection, schedule: Q04DX003 (ip), vehicle: saline 106 % of control | endpoint: median survival time, dose: 12.5 mg/kg/injection, schedule: Q04DX003 (ip), vehicle: Klucel (hydroxypropylcellulose) (HPC) 122 % of control | endpoint: median survival time, dose: 12.5 mg/kg/injection, schedule: Q04DX003 (ip), vehicle: saline 101 % of control and 109 % of control | endpoint: median survival time, dose: 25.0 mg/kg/injection, schedule: Q04DX003 (ip), vehicle: Klucel (hydroxypropylcellulose) (HPC) 101 % of control | endpoint: median survival time, dose: 25.0 mg/kg/injection, schedule: Q04DX003 (ip), vehicle: saline 118 % of control and 107 % of control | endpoint: median survival time, dose: 50.0 mg/kg/injection, schedule: Q04DX003 (ip), vehicle: Klucel (hydroxypropylcellulose) (HPC) 103 % of control | endpoint: median survival time, dose: 50.0 mg/kg/injection, schedule: Q04DX003 (ip), vehicle: saline 109 % of control | endpoint: median survival time, dose: 100.0 mg/kg/injection, schedule: Q04DX003 (ip), vehicle: Klucel (hydroxypropylcellulose) (HPC) 109 % of control | endpoint: median survival time, dose: 100.0 mg/kg/injection, schedule: Q04DX003 (ip), vehicle: saline 120 % of control and 110 % of control | endpoint: median survival time, dose: 200.0 mg/kg/injection, schedule: Q04DX003 (ip), vehicle: Klucel (hydroxypropylcellulose) (HPC) 116 % of control | endpoint: median survival time, dose: 200.0 mg/kg/injection, schedule: Q04DX003 (ip), vehicle: saline 113 % of control

CCC(O)C[As](=O)(O)c1ccccc1Cl (stereo unspecified)
inactive: endpoint: mean survival time, dose: 6.25 mg/kg/injection, schedule: Q04DX003 (ip), vehicle: saline with Tween-80 107 % of control | endpoint: mean survival time, dose: 12.5 mg/kg/injection, schedule: Q04DX003 (ip), vehicle: saline with Tween-80 98 % of control | [1] 104 % of control

CCCCN(CCCC)CC(O)c1cc(-c2cc(C(O)CN(CCCC)CCCC)c3ccccc3n2)nc2ccccc12 (stereo unspecified)
inactive: [3] 95 % of control | [5] 86 % of control

Cc1nc2c(c(-c3ccccc3)n1)Cc1c(ccc3ccccc13)O2
inactive: [7] 92 % of control | [8] 98 % of control | endpoint: mean survival time, dose: 400.0 mg/kg/injection, schedule: Q01DX001 (ip), vehicle: saline 103 % of control

O=C(/C=C\c1ccccc1)c1ccc(Cl)cc1
inactive: endpoint: mean survival time, dose: 100.0 mg/kg/injection, schedule: Q01DX001 (ip), vehicle: other 90 % of control | endpoint: mean survival time, dose: 200.0 mg/kg/injection, schedule: Q01DX001 (ip), vehicle: other 92 % of control | endpoint: mean survival time, dose: 400.0 mg/kg/injection, schedule: Q01DX001 (ip), vehicle: other 88 % of control

COC(=O)C(C(=O)OC)=C(C(=O)OC)C(=O)OC
inactive: [9] 96 % of control | [10] 96 % of control | [11] 94 % of control

CSC(N)=Nc1ccc(C(=O)O)cc1
inactive: [3] 100 % of control | [5] 94 % of control | [6] 94 % of control

CCC1=C(C)C(=O)Nc2c3ncnc-3ncn2C1O (stereo unspecified)
inactive: [12] 104 % of control | [9] 101 % of control | [10] 102 % of control

COc1ccc(C2OC2C(=O)O)cc1OC (stereo unspecified)
inactive: [3] 98 % of control | [5] 86 % of control | [6] 96 % of control

NC(CSC(c1ccccc1)(c1ccccc1)c1ccc(-c2ccccc2)cc1)C(=O)O (stereo unspecified)
inactive: endpoint: mean survival time, dose: 50.0 mg/kg/injection, schedule: Q01DX009 (ip), vehicle: saline 111 % of control | endpoint: mean survival time, dose: 100.0 mg/kg/injection, schedule: Q01DX009 (ip), vehicle: saline 108 % of control | endpoint: mean survival time, dose: 200.0 mg/kg/injection, schedule: Q01DX009 (ip), vehicle: saline 105 % of control | endpoint: mean survival time, dose: 400.0 mg/kg/injection, schedule: Q01DX009 (ip), vehicle: saline 100 % of control

OC(CF)CCl (stereo unspecified)
inactive: [12] 96 % of control | [4] 100 % of control | [13] 121 % of control

O=C(C(=Nc1ccccc1)c1ccccc1)c1ccccc1
inactive: [12] 100 % of control | [9] 97 % of control | [10] 97 % of control

COC(=O)CC(=O)c1ccc(OC(C)C)cc1
inactive: [9] 100 % of control | [3] 87 % of control | [10] 107 % of control | [5] 90 % of control | [11] 104 % of control | [6] 87 % of control

O=c1cc(CBr)c2ccccc2[nH]1
inactive: [1] 103 % of control

O=c1[nH]cc(Cc2cccc3ccccc23)c(=O)[nH]1
inactive: endpoint: mean survival time, dose: 100.0 mg/kg/injection, schedule: Q01DX001 (ip), vehicle: saline with Tween-80 92 % of control | endpoint: mean survival time, dose: 200.0 mg/kg/injection, schedule: Q01DX001 (ip), vehicle: saline with Tween-80 94 % of control | endpoint: mean survival time, dose: 400.0 mg/kg/injection, schedule: Q01DX001 (ip), vehicle: saline with Tween-80 86 % of control

CCCCCC(=O)NCC(=O)N1CCCC1C(=O)NCCCCC(=O)OC (stereo unspecified) (Hexanoyl-Gly-[ξP]-[Ava]-OMe)
inactive: [4] 98 % of control | [13] 107 % of control | endpoint: mean survival time, dose: 400.0 mg/kg/injection, schedule: Q04DX003 (ip), vehicle: saline 103 % of control

O=C1C(=C(C(F)(F)F)C(F)(F)F)CCc2ccc([N+](=O)[O-])cc21
inactive: [9] 102 % of control | [3] 114 % of control | [10] 104 % of control | [5] 101 % of control | [11] 102 % of control | [6] 103 % of control

COc1ccc(S(=O)(=O)N=N/C=C2\C=CC=CN2O)cc1OC
inactive: endpoint: median survival time, dose: 3.12 mg/kg/injection, schedule: Q01DX009 (ip), vehicle: saline with Tween-80 101 % of control | endpoint: median survival time, dose: 6.25 mg/kg/injection, schedule: Q01DX009 (ip), vehicle: saline with Tween-80 107 % of control | endpoint: median survival time, dose: 12.5 mg/kg/injection, schedule: Q01DX009 (ip), vehicle: saline with Tween-80 104 % of control | endpoint: median survival time, dose: 18.0 mg/kg/injection, schedule: Q01DX009 (ip), vehicle: saline with Tween-80 103 % of control | endpoint: median survival time, dose: 37.0 mg/kg/injection, schedule: Q01DX009 (ip), vehicle: saline with Tween-80 105 % of control | endpoint: median survival time, dose: 100.0 mg/kg/injection, schedule: Q01DX009 (ip), vehicle: saline with Tween-80 113 % of control | endpoint: median survival time, dose: 150.0 mg/kg/injection, schedule: Q01DX009 (ip), vehicle: saline with Tween-80 98 % of control | endpoint: median survival time, dose: 200.0 mg/kg/injection, schedule: Q01DX009 (ip), vehicle: saline with Tween-80 95 % of control

O[C@@H](c1ccccc1)[C@@H](c1ccccc1)N1CCCCC1
inactive: endpoint: mean survival time, dose: 50.0 mg/kg/injection, schedule: Q04DX003 (ip), vehicle: saline 103 % of control | [7] 96 % of control | [4] 108 % of control | [8] 104 % of control | [13] 98 % of control

OCC1OC(n2ncc3c(NO)ncnc32)C(O)C1O (stereo unspecified)
inactive: endpoint: mean survival time, dose: 1.56 mg/kg/injection, schedule: Q01DX005 (ip), vehicle: water 103 % of control | endpoint: mean survival time, dose: 3.13 mg/kg/injection, schedule: Q01DX005 (ip), vehicle: water 107 % of control | endpoint: mean survival time, dose: 6.25 mg/kg/injection, schedule: Q01DX005 (ip), vehicle: water 103 % of control | endpoint: mean survival time, dose: 12.5 mg/kg/injection, schedule: Q01DX005 (ip), vehicle: water 114 % of control | endpoint: mean survival time, dose: 25.0 mg/kg/injection, schedule: Q01DX005 (ip), vehicle: water 88 % of control

CNC(=O)Oc1coc(CCl)cc1=O
inactive: endpoint: mean survival time, dose: 25.0 mg/kg/injection, schedule: Q01DX009 (ip), vehicle: saline with Tween-80 98 % of control | [12] 107 % of control | [2] 97 % of control | [9] 101 % of control | [3] 101 % of control
